For series [1], the target named is T1, NLRP3 (Homo sapiens, UniProt Q96P20). The series can be described thus: THP-1 cells pyroptosis assay. In kind it is cell-based. More on the design: Seed THP-1 cells (25,000 cells/well) containing 1.0 μg/ml LPS in 40 μl of RPMI medium; host or cells: THP-1 cells. The note with it: NLRP3 inhibitory activity, 1.0 μg/ml LPS, nigericin 5 μM, resazurin readout. As for the experimental part:
The cells were routinely passaged and grown to confluency (˜10^6 cells/ml). On the day of the experiment, THP-1 cells were harvested and resuspended into RPMI medium (without FBS). The cells were then counted and viability (>90%) checked by Trypan blue (Sigma #T8154). […] To this diluted cell solution was added LPS (Sigma #L4524) to give a 1 μg/ml Final Assay Concentration (FAC). 40 μl of the final preparation was aliquoted into each well of a 96-well plate. The plate thus prepared was used for compound screening.
The following method step-by-step assay was followed for compound screening. • 1. […] Incubate for 3 hrs at 37° C. in 5% CO2 • 4. Add 5 μl nigericin (Sigma #N7143) (FAC 5 μM) to all wells • 5. Incubate for 1 hr at 37° C. and 5% CO2 • 6. At the end of the incubation period, spin plates at 300×g for 3 mins and remove supernatant • 7. Then add 50 μl of resazurin (Sigma #R7017) (FAC 100 μM resazurin in RPMI medium without FBS) and incubate plates for a further 1-2 hrs at 37° C. and 5% CO2 • 8. […] IC50 data is fitted to a non-linear regression equation (log inhibitor vs response-variable slope 4-parameters)
On the technique in general: Alamar Blue is a resazurin reagent that responds to reducing activity.

The target in series [2] is T1, NLRP3. Nature of the series: Human whole blood IL1β release assay. In kind it is cell-based. More on the design: Plate out 80 μl of whole blood containing 1 μg/ml of LPS in 96-well, clear bottom cell culture plate; from tissue; host or cells: human whole blood from healthy donors. To be noted: NLRP3 inhibitory activity, 1 μg/ml LPS, nigericin 10 μM, IL-1β by AlphaLisa, read-out: HWB IC50. As for the experimental part: For systemic delivery, the ability to inhibit NLRP3 when the compounds are present within the bloodstream is of great importance. For this reason, the NLRP3 inhibitory activity of a number of compounds in human whole blood was investigated in accordance with the following protocol.
Human whole blood in Li-heparin tubes was obtained from healthy donors from a volunteer donor panel. • 1. […] Incubate for 3 hrs at 37° C., 5% CO2 • 4. Add 10 μl nigericin (Sigma #N7143) (10 μM FAC) to all wells • 5. Incubate for 1 hr at 37° C., 5% CO2 • 6. At the end of the incubation period, spin plates at 300×g for 5 mins to pellet cells and remove 20 μl of supernatant and add to 96-well v-bottom plates for IL-1β analysis (note: these plates containing the supernatants can be stored at −80° C. to be analysed at a later date) • 7. IL-1β was measured according to the manufacturer protocol (Perkin Elmer-AlphaLisa IL-1 Kit AL220F-5000) • 8. IC50 data is fitted to a non-linear regression equation (log inhibitor vs response-variable slope 4-parameters)
For orientation: Bead proximity is the source of the signal in Alpha formats.

Series [3] is described as follows: PK protocol, intravenous administration in rats. In kind it is in vivo. The note with it: rat, 1 mg/kg, male Sprague Dawley rats, plasma; for Vd: read-out: Vdss. As for the experimental part: Pharmacokinetic parameters were determined in male Sprague Dawley rats (Vital River Laboratory Animal Technology Co Ltd, Beijing, China, 7-9 weeks old). Animals were individually housed during the study and maintained under a 12 h light/dark cycle. Animals had free access to food and water.
For intravenous administration, compounds were formulated as a solution in DMSO:PBS [10:90] in 2 mL/kg dosing volume and administered via tail vein.
Serial blood samples (about 200 μL) were taken from each animal at each of 8 time-points post dose (0.083, 0.25, 0.5, 1, 2, 4, 8 and 24 h). Samples were held on ice for no longer than 30 minutes before centrifugation (5,696 rpm (3,000 g) for 15 minutes) for plasma generation. Plasma was frozen on dry ice prior to bioanalysis. PK parameters were generated from LC-MS/MS data using Phoenix WinNonlin 6.3 software.

A value given as a limit tells only on which side of the number the result lay.

T1 sequence (Q96P20 whole entry): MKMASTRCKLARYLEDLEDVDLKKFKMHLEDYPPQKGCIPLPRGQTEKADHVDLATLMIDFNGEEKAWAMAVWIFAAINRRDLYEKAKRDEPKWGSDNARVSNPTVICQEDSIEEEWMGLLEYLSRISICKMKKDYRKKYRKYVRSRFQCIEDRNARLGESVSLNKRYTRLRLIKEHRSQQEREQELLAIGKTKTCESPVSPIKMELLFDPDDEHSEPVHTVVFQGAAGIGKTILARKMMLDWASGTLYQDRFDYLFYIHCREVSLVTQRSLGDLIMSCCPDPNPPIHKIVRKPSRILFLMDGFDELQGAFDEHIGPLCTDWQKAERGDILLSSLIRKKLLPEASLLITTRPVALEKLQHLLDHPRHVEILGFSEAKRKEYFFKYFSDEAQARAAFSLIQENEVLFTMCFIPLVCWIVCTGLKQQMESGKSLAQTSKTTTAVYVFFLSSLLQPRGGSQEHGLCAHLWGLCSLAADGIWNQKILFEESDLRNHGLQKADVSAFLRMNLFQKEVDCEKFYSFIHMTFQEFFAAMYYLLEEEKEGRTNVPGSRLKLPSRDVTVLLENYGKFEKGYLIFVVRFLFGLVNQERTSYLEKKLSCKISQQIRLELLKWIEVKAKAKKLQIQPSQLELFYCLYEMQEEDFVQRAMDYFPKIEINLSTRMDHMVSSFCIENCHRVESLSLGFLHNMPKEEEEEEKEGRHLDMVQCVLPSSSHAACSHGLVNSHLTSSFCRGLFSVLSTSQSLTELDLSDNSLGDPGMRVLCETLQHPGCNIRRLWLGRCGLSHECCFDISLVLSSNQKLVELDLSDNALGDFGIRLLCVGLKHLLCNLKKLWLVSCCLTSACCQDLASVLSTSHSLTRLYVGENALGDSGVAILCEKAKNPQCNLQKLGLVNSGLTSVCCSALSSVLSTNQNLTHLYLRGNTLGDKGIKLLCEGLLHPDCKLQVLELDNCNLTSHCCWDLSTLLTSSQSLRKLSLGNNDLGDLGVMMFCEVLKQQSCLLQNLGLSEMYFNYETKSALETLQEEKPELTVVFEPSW

Broadly, the IC50 is the point on the concentration scale where inhibition reaches its midpoint. In the case of `COc1cc(-c2cc(F)cc(C(C)C)c2NC(=O)NS(=N)(=O)c2ccn(C[C@@H](C)O)n2)ccn1` (stereo partly drawn) [Example 19, N-((4-Fluoro-2-isopropyl-6-(2-methoxypyridin-4-yl)phenyl)carbamoyl)-1-((R)-2-hydroxypropyl)-1H-pyrazole-3-sulfonimidamide], the IC50 in series [1] was less than 0.1 µM; in series [2], less than 1 µM.

Turning to “N-((2-(2-Cyanopyridin-4-yl)-4-fluoro-6-isopropylphenyl)carbamoyl)-1-((R)-2-hydroxypropyl)-1H-pyrazole-3-sulfonimidamide [Example 18]”, the IC50 in series [1] and in series [2] was less than 0.5 µM throughout.

With `CC(C)N1CC(S(=N)(=O)NC(=O)Nc2c3c(cc4c2CCC4)CCC3)C1` (centres unmarked) [Example 7, N-((1,2,3,5,6,7-Hexahydro-s-indacen-4-yl)carbamoyl)-1-isopropyl-azetidine-3-sulfonimidamide], the IC50 in series [1] and in series [2] was less than 5 µM each time.

What is called AUC is the area under the concentration-time curve, a measure of exposure. The low end stands for less exposure, the high end for more exposure. For orientation: clearance means the volume of plasma or blood freed of the substance per unit of time. A low value points to inefficient removal. The half-life is the time in which the quantity being followed falls by half. A lower half-life goes with rapid decline. As for `COc1cc(-c2ccc3c(c2NC(=O)NS(=N)(=O)c2nn(C(C)C)cc2Cl)CCC3)ccn1` (centres unmarked) [Example 11, 4-Chloro-1-isopropyl-N-((5-(2-methoxypyridin-4-yl)-2,3-dihydro-1H-inden-4-yl)carbamoyl)-1H-pyrazole-3-sulfonimidamide], in series [3], the AUC stood at 2720 ng·h/mL, the clearance was found to be 6.1 mL/min/kg, the half-life was 1 h and the Vd was 0.45 L/kg. For the same compound, the IC50 in series [1] was less than 0.1 µM. The IC50 in series [2] is less than 1 µM.

For the compound `CC(C)c1cc(F)cc(-c2ccnc(C#N)c2)c1NC(=O)NS(=N)(=O)c1nn(C(C)C)cc1Cl` (centres unmarked) [Example 12, 4-Chloro-N-((2-(2-cyanopyridin-4-yl)-4-fluoro-6-isopropylphenyl)carbamoyl)-1-isopropyl-1H-pyrazole-3-sulfonimidamide], the half-inhibitory concentration (IC50) is less than 0.1 µM in series [1] and less than 0.5 µM in series [2].

For the compound “5-(Azetidin-1-ylmethyl)-N-((4-fluoro-2,6-diisopropylphenyl) carbamoyl)-1-methyl-1H-pyrazole-3-sulfonimidamide [Example 23]”, the results for the IC50 in series [1] and in series [2] were less than 0.1 µM and less than 5 µM, respectively.

As for `COc1cc(-c2cc(F)cc(C(C)C)c2NC(=O)NS(=N)(=O)c2ccn(C(C)C)n2)ccn1` (centres unmarked) [Example 16, N-((4-Fluoro-2-isopropyl-6-(2-methoxypyridin-4-yl)phenyl)carbamoyl)-1-isopropyl-1H-pyrazole-3-sulfonimidamide], the half-maximal inhibitory concentration (IC50) was less than 0.1 µM in series [1] and less than 1 µM in series [2].

`CC(C)c1cc(F)cc(-c2ccnc(C#N)c2)c1NC(=O)NS(=N)(=O)c1ccn(C(C)C)n1` (centres unmarked) [Example 15, N-((2-(2-Cyanopyridin-4-yl)-4-fluoro-6-isopropylphenyl)carbamoyl)-1-isopropyl-1H-pyrazole-3-sulfonimidamide]: the 50% inhibitory concentration (IC50) in series [1] and in series [2] was less than 1 µM in each case.

With `C[C@@H](O)Cn1ccc(S(=N)(=O)NC(=O)Nc2c3c(cc4c2CCC4)CCC3)n1` (stereo partly drawn) [Example 3, N-((1,2,3,5,6,7-Hexahydro-s-indacen-4-yl)carbamoyl)-1-((R)-2-hydroxypropyl)-1H-pyrazole-3-sulfonimidamide], in series [3], the AUC came out at 2250 ng·h/mL, the clearance amounted to 7.4 mL/min/kg, the half-life is 2.7 h and the Vd amounted to 0.75 L/kg. Further, the IC50 in series [1] is less than 0.1 µM. Moreover, the 50% inhibitory concentration (IC50) in series [2] was less than 0.5 µM.

As for `CC(C)n1cc(Cl)c(S(=N)(=O)NC(=O)Nc2c(-c3ccncc3)cc(F)c3c2CCC3)n1` (centres unmarked) [Example 26, 4-Chloro-N-((7-fluoro-5-(pyridin-4-yl)-2,3-dihydro-1H-inden-4-yl)carbamoyl)-1-isopropyl-1H-pyrazole-3-sulfonimidamide], the IC50 was less than 0.1 µM in series [1] and less than 0.5 µM in series [2].

For the compound `CN(C)CCn1ccc(S(=N)(=O)NC(=O)Nc2c3c(cc4c2CCC4)CCC3)n1` (centres unmarked) [Example 10, 1-(2-(Dimethylamino)ethyl)-N-((1,2,3,5,6,7-hexahydro-s-indacen-4-yl)carbamoyl)-1H-pyrazole-3-sulfonimidamide], the half-inhibitory concentration (IC50) in series [1] and in series [2] was less than 0.5 µM in each case.

For the compound `COc1cc(-c2ccc3c(c2NC(=O)N[S@](=N)(=O)c2ccn(C(C)C)n2)CCC3)ccn1` [Example 28, (S)-1-Isopropyl-N-((5-(2-methoxypyridin-4-yl)-2,3-dihydro-1H-inden-4-yl)carbamoyl)-1H-pyrazole-3-sulfonimidamide], the IC50 in series [1] is less than 1 µM; in series [2], less than 5 µM.

Turning to `COc1cc(-c2ccc3c(c2NC(=O)N[S@@](=N)(=O)c2ccn(C(C)C)n2)CCC3)ccn1` [Example 27, (R)-1-Isopropyl-N-((5-(2-methoxypyridin-4-yl)-2,3-dihydro-1H-inden-4-yl)carbamoyl)-1H-pyrazole-3-sulfonimidamide], the concentration for half-maximal inhibition (IC50) was less than 0.1 µM in series [1] and less than 0.5 µM in series [2].

With `C[C@@H](O)Cn1ccc(S(=N)(=O)NC(=O)Nc2c(-c3ccncc3)cc(F)c3c2CCC3)n1` (stereo partly drawn) [Example 25, N-((7-Fluoro-5-(pyridin-4-yl)-2,3-dihydro-1H-inden-4-yl)carbamoyl)-1-((R)-2-hydroxypropyl)-1H-pyrazole-3-sulfonimidamide], the IC50 in series [1] is less than 0.1 µM; in series [2] it was less than 0.5 µM.

Turning to `COc1cc(-c2cc(F)cc(C(C)C)c2NC(=O)NS(=N)(=O)c2nn(C(C)C)cc2Cl)ccn1` (centres unmarked) [Example 13, 4-Chloro-N-((4-fluoro-2-isopropyl-6-(2-methoxypyridin-4-yl)phenyl)carbamoyl)-1-isopropyl-1H-pyrazole-3-sulfonimidamide], the IC50 was less than 0.1 µM in series [1] and less than 1 µM in series [2].

On to `CC(C)n1cc(Cl)c(S(=N)(=O)NC(=O)Nc2c3c(cc4c2CCC4)CCC3)n1` (centres unmarked) [Example 2, 4-Chloro-N-((1,2,3,5,6,7-hexahydro-s-indacen-4-yl)carbamoyl)-1-iso-propyl-1H-pyrazole-3-sulfonimidamide], for which the results for the IC50 in series [1] and in series [2] were less than 0.1 µM and less than 5 µM, respectively.

For the compound `CC(c1cc(S(=N)(=O)NC(=O)Nc2c3c(cc4c2CCC4)CCC3)nn1C)N1CCC1` (centres unmarked) [Example 22, 5-(1-(Azetidin-1-yl)ethyl)-N-((1,2,3,5,6,7-hexahydro-s-indacen-4-yl)carbamoyl)-1-methyl-1H-pyrazole-3-sulfonimidamide], the figures for the half-inhibitory concentration (IC50) in series [1] and in series [2] were less than 0.1 µM and less than 0.5 µM, respectively.

In turn, `CCN(CC)CCCS(=N)(=O)NC(=O)Nc1c2c(cc3c1CCC3)CCC2` (centres unmarked) [Example 6, 3-(Diethylamino)-N-((1,2,3,5,6,7-hexahydro-s-indacen-4-yl)carbamoyl) propane-1-sulfonimidamide] yielded a half-inhibitory concentration (IC50) in series [1] of less than 10 µM.

Consider `COc1cc(-c2ccc3c(c2NC(=O)NS(=N)(=O)c2ccn(C[C@@H](C)O)n2)CCC3)ccn1` (stereo partly drawn) [Example 17, 1-((R)-2-Hydroxypropyl)-N-((5-(2-methoxypyridin-4-yl)-2,3-dihydro-1H-inden-4-yl)carbamoyl)-1H-pyrazole-3-sulfonimidamide], for which the IC50 is less than 0.1 µM in series [1] and less than 0.5 µM in series [2].

In the case of `CC(C)n1ccc(S(=N)(=O)NC(=O)Nc2c(-c3ccncc3)cc(F)c3c2CCC3)n1` (centres unmarked) [Example 24, N-((7-Fluoro-5-(pyridin-4-yl)-2,3-dihydro-1H-inden-4-yl)carbamoyl)-1-isopropyl-1H-pyrazole-3-sulfonimidamide], the IC50 in series [1] was less than 0.1 µM; in series [2], less than 0.5 µM.

The record behind these values is US11623922B2, “Compounds” (INFLAZOME LIMITED, priority 2017, dated 2023).
